US20250154173A1 (Merck Sharp & Dohme LLC, priority 2023, published 2025)

Target: T1, GST-RIPK1 (recombinant GST-RIPK1 kinase domain (residues 1-327)) (Homo sapiens, UniProt Q13546)
T1 construct: recombinant GST-RIPK1 kinase domain (residues 1-327) enzyme produced from baculovirus-transfected Sf21 cells; host or cells: baculovirus-transfected Sf21 insect cells
T1 sequence (Q13546 1-327): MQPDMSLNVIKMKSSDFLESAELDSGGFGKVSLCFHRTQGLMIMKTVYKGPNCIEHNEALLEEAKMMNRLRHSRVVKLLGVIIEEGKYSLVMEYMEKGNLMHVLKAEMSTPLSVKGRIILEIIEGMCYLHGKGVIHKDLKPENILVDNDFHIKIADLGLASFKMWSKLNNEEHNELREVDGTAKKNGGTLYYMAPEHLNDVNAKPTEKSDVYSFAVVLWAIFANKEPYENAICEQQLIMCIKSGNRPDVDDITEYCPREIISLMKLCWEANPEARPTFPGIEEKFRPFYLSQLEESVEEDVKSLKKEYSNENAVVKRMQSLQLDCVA
Assay: RIPK1-ADP-Glo Enzymatic Assay
Assay type: biochemical
Details: ten-point titration, top compound concentration of 100000 nM; 25 nM GST-RIPK1, 300 μM ATP, 3 μM dephosphorylated-MBP; 30 min pre-incubation, 150 min reaction
Procedure, shortened: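 ADP-Glo luminescence quantifies ADP formed over 150 minutes by 25 nM Sf21-produced GST-RIPK1 (1-327) using 300 μM ATP and 3 μM dephosphorylated MBP, following 30-minute compound preincubation at 1% DMSO. Ten-point 1:3 series from 100000 nM gave EC50 via four-parameter sigmoidal regression.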

How did the EC50 turn out when O=C1N2C(CC[C@H]2c2cnccn2)OC12CC(OCc1cccc(Cn3ccnn3)c1)C2 (stereo partly drawn) [Example 18.76, (5′S)-5′-(pyrazin-2-yl)-3-({3-[(1H-1,2,3-triazol-1-yl)methyl]phenyl}methoxy)tetrahydro-3′H-spiro[cyclobutane-1,2′-pyrrolo[2,1-b][1,3]oxazol]-3′-one] was run?
The EC50 was 168 nM.

With O=C1N2[C@@H](CC[C@H]2c2ccccc2)OC12CCC(OCc1ccccc1)CC2 (single isomer, unassigned) [Example 1.1, ((1r or s),4R,5′S,7a′R)-4-(benzyloxy)-5′-phenyltetrahydro-3′H-spiro[cyclohexane-1,2′-pyrrolo[2,1-b]oxazol]-3′-one] as the compound, how does the EC50 read?
The EC50 was 256 nM.

Which EC50 does the source give for O=C1N2[C@@H](CC[C@H]2c2cnccn2)OC12CC(OCc1csc3ncccc13)C2 (stereo partly drawn) [Example 19.19, (5′S,7a′R)-5′-(pyrazin-2-yl)-3-[(thieno[2,3-b]pyridin-3-yl)methoxy]tetrahydro-3′H-spiro[cyclobutane-1,2′-pyrrolo[2,1-b][1,3]oxazol]-3′-one] here?
Its EC50 is 27 nM.

With O=C1N2[C@@H](CC[C@H]2c2ccccc2)OC12CC(Oc1nccc3nccn13)C2 (stereo partly drawn) [Example 8.20, (5′S,7a′R)-3-[(imidazo[1,2-c]pyrimidin-5-yl)oxy]-5′-phenyltetrahydro-3′H-spiro[cyclobutane-1,2′-pyrrolo[2,1-b][1,3]oxazol]-3′-one] as the compound, how does the EC50 read?
Its EC50 is 20 nM.

N#CC1(c2ccc(COC3CC4(C3)OC3CC[C@@H](c5cnccn5)N3C4=O)cn2)CCC1 (stereo partly drawn) [Example 18.28, 1-[5-({[(5′S)-3′-oxo-5′-(pyrazin-2-yl)tetrahydro-3′H-spiro[cyclobutane-1,2′-pyrrolo[2,1-b][1,3]oxazol]-3-yl]oxy}methyl)pyridin-2-yl]cyclobutane-1-carbonitrile] was tested. Which EC50 did it give?
The EC50 was 174 nM.

How did the EC50 turn out when O=C1N2[C@@H](CC[C@H]2c2cnccn2)OC12CC(OCc1ccc3scnc3c1)C2 (stereo partly drawn) [Example 20.7, (5′S,7a′R)-3-[(1,3-benzothiazol-5-yl)methoxy]-5′-(pyrazin-2-yl)tetrahydro-3′H-spiro[cyclobutane-1,2′-pyrrolo[2,1-b][1,3]oxazol]-3′-one] was run?
The EC50 was 86 nM.

Which EC50 does the source give for N#Cc1ccnc(O[C@H]2C[C@@]3(C2)O[C@@H]2CC[C@@H](c4ccccc4)N2C3=O)n1 [Example 9.19, 2-{[(1r,3R,5′S,7a′R)-3′-oxo-5′-phenyltetrahydro-3′H-spiro[cyclobutane-1,2′-pyrrolo[2,1-b][1,3]oxazol]-3-yl]oxy}pyrimidine-4-carbonitrile] here?
The EC50 was 64 nM.

With O=C1N2C(CC[C@H]2c2cnccn2)OC12CC(OCc1ccc(-c3ccon3)cc1)C2 (stereo partly drawn) [Example 18.30, (5′S)-3-{[4-(1,2-oxazol-3-yl)phenyl]methoxy}-5′-(pyrazin-2-yl)tetrahydro-3′H-spiro[cyclobutane-1,2′-pyrrolo[2,1-b][1,3]oxazol]-3′-one] as the compound, how does the EC50 read?
The EC50 was 45 nM.

Which EC50 does the source give for N#Cc1ccnc(O[C@H]2C[C@@]3(C2)O[C@@H]2CC[C@@H](c4ccccc4)N2C3=O)c1 [Example 10.4, 2-(((1r,3R,5′S,7a′R)-3′-oxo-5′-phenyltetrahydro-3′H-spiro[cyclobutane-1,2′-pyrrolo[2,1-b]oxazol]-3-yl)oxy)isonicotinonitrile] here?
The EC50 was 13 nM.

With Cn1nccc1-c1cc(OC2CC3(C2)O[C@@H]2CC[C@@H](c4cnccn4)N2C3=O)ncn1 (stereo partly drawn) [Example 19.20, (5′S,7a′R)-3-{[6-(1-methyl-1H-pyrazol-5-yl)pyrimidin-4-yl]oxy}-5′-(pyrazin-2-yl)tetrahydro-3′H-spiro[cyclobutane-1,2′-pyrrolo[2,1-b][1,3]oxazol]-3′-one] as the compound, how does the EC50 read?
Its EC50 is 13 nM.

With N#Cc1cc(F)cc(OC2CC3(C2)O[C@@H]2CC[C@@H](c4cnccn4)N2C3=O)c1 (stereo partly drawn) [Example 19.4, 3-fluoro-5-{[(5′S,7a′R)-3′-oxo-5′-(pyrazin-2-yl)tetrahydro-3′H-spiro[cyclobutane-1,2′-pyrrolo[2,1-b][1,3]oxazol]-3-yl]oxy}benzonitrile] as the compound, how does the EC50 read?
The EC50 was 33 nM.

Which EC50 does the source give for N#Cc1cc(F)cc(OC2CC3(C2)O[C@@H]2CC[C@@H](c4cnccn4)N2C3=O)c1 (stereo partly shown) [Example 19.16] here?
The EC50 was 18 nM.

Which EC50 does the source give for O=C1N2[C@@H](CC[C@H]2c2cc(F)cc(F)c2)OC12CC(Oc1ccc(F)cn1)C2 (single isomer, unassigned) [Example 9.35] here?
The EC50 was 64 nM.

Which EC50 does the source give for Cn1ccc([C@@H]2CC[C@H]3OC4(CC(Oc5cccc(-c6ccnn6C)c5)C4)C(=O)N32)n1 (stereo partly drawn) [Example 19.10, (5′S,7a′R)-5′-(1-methyl-1H-pyrazol-3-yl)-3-[3-(1-methyl-1H-pyrazol-5-yl)phenoxy]tetrahydro-3′H-spiro[cyclobutane-1,2′-pyrrolo[2,1-b][1,3]oxazol]-3′-one] here?
Its EC50 is 30 nM.

For O=C1N2[C@@H](CC[C@H]2c2ccc(F)cc2)OC12CC(OCc1ccncc1)C2 (stereo partly drawn) [Example 9.61, (5′S,7a′R)-5′-(4-fluorophenyl)-3-[(pyridin-4-yl)methoxy]tetrahydro-3′H-spiro[cyclobutane-1,2′-pyrrolo[2,1-b][1,3]oxazol]-3′-one], which EC50 is on record?
The EC50 was 104 nM.

How did the EC50 turn out when Cn1ccc([C@@H]2CC[C@H]3OC4(CC(Oc5cccnc5)C4)C(=O)N32)n1 (stereo partly drawn) [Example 19.11, (5′S,7a′R)-5′-(1-methyl-1H-pyrazol-3-yl)-3-[(pyridin-3-yl)oxy]tetrahydro-3′H-spiro[cyclobutane-1,2′-pyrrolo[2,1-b][1,3]oxazol]-3′-one] was run?
The EC50 was 209 nM.

How did the EC50 turn out when N#Cc1cccc(F)c1COC1CC2(C1)OC1CC[C@@H](c3cnccn3)N1C2=O (stereo partly drawn) [Example 18.51, 3-fluoro-2-({[(5′S)-3′-oxo-5′-(pyrazin-2-yl)tetrahydro-3′H-spiro[cyclobutane-1,2′-pyrrolo[2,1-b][1,3]oxazol]-3-yl]oxy}methyl)benzonitrile] was run?
Its EC50 is 210 nM.

Which EC50 does the source give for O=C1N2C(CC[C@H]2c2cnccn2)OC12CC(OCc1cnn(-c3ccccc3)c1)C2 (stereo partly drawn) [Example 18.7, (5′S)-3-[(1-phenyl-1H-pyrazol-4-yl)methoxy]-5′-(pyrazin-2-yl)tetrahydro-3′H-spiro[cyclobutane-1,2′-pyrrolo [2,1-b][1,3]oxazol]-3′-one] here?
The EC50 was 52 nM.

For O=C1N2C(CC[C@H]2c2cnccn2)OC12CC(OCc1ccc3nc(C(F)(F)F)sc3c1)C2 (stereo partly drawn) [Example 18.97, (5′S)-5′-(pyrazin-2-yl)-3-{[2-(trifluoromethyl)-1,3-benzothiazol-6-yl]methoxy}tetrahydro-3′H-spiro[cyclobutane-1,2′-pyrrolo[2,1-b][1,3]oxazol]-3′-one], which EC50 is on record?
Its EC50 is 289 nM.

Which EC50 does the source give for O=C1N2C(CC[C@H]2c2cnccn2)OC12CC(OCc1cccc(Cn3ccnn3)c1)C2 (stereo partly drawn) [Example 18.26, (5′S)-5′-(pyrazin-2-yl)-3-({3-[(1H-1,2,3-triazol-1-yl)methyl]phenyl}methoxy) tetrahydro-3′H-spiro[cyclobutane-1,2′-pyrrolo[2,1-b][1,3]oxazol]-3′-one] here?
The EC50 was 34 nM.

For O=C1N2[C@@H](CC[C@H]2c2cnccn2)O[C@]12C[C@@H](Oc1ncnn3cccc13)C2 [Example 9.45, (1s,3S,5′S,7a′R)-5′-(pyrazin-2-yl)-3-(pyrrolo[2,1-f][1,2,4]triazin-4-yloxy)tetrahydro-3′H-spiro[cyclobutane-1,2′-pyrrolo[2,1-b]oxazol]-3′-one], which EC50 is on record?
Its EC50 is 233 nM.

With O=C1N2C(CC[C@H]2c2cnccn2)OC12CC(OCc1cc3ncccc3s1)C2 (stereo partly drawn) [Example 18.43, (5′S)-5′-(pyrazin-2-yl)-3-[(thieno[3,2-b]pyridin-2-yl)methoxy]tetrahydro-3′H-spiro[cyclobutane-1,2′-pyrrolo[2,1-b][1,3]oxazol]-3′-one] as the compound, how does the EC50 read?
Its EC50 is 6 nM.

With O=C1N2[C@@H](CC[C@H]2c2cnccn2)OC12CC(OCc1cccc(F)c1)C2 (single isomer, unassigned) [Example 22.5] as the compound, how does the EC50 read?
Its EC50 is 15 nM.

For N#CC1(c2ccc(COC3CC4(C3)O[C@@H]3CC[C@@H](c5cnccn5)N3C4=O)cc2)CC1 (stereo partly drawn) [Example 20.8, 1-[4-({[(5′S,7a′R)-3′-oxo-5′-(pyrazin-2-yl)tetrahydro-3′H-spiro[cyclobutane-1,2′-pyrrolo[2,1-b][1,3]oxazol]-3-yl]oxy}methyl)phenyl]cyclopropane-1-carbonitrile], which EC50 is on record?
Its EC50 is 236 nM.

Which EC50 does the source give for O=C1N2[C@@H](CC[C@H]2c2cnccn2)O[C@]12C[C@@H](OCc1cccnc1)C2 [Example 18.1, (1S,3S,5′S,7a′R)-5′-(pyrazin-2-yl)-3-(pyridin-3-ylmethoxy)tetrahydro-3′H-spiro[cyclobutane-1,2′-pyrrolo[2,1-b]oxazol]-3′-one] here?
Its EC50 is 100 nM.

For O=C1N2[C@@H](CC[C@H]2c2cc(F)cc(F)c2)O[C@]12C[C@H](Oc1cc(Cl)ncn1)C2 [Example 9.3, (5′S,7a′R)-3-((6-chloropyrimidin-4-yl)oxy)-5′-(3,5-difluorophenyl)tetrahydro-3′H-spiro[cyclobutane-1,2′-pyrrolo[2,1-b]oxazol]-3′-one], which EC50 is on record?
Its EC50 is 10 nM.

With O=C1N2[C@@H](CC[C@H]2c2cnccn2)OC12CC(OCc1cccc(Cl)c1)C2 (stereo partly drawn) [Example 22.6, (5′S,7a′R)-3-[(3-chlorophenyl)methoxy]-5′-(pyrazin-2-yl)tetrahydro-3′H-spiro[cyclobutane-1,2′-pyrrolo[2,1-b][1,3]oxazol]-3′-one] as the compound, how does the EC50 read?
The EC50 was 15 nM.

With O=C1N2C(CC[C@H]2c2cnccn2)OC12CC(OCc1csc3ncccc13)C2 (stereo partly drawn) [Example 18.68, (5′S)-5′-(pyrazin-2-yl)-3-[(thieno[2,3-b]pyridin-3-yl)methoxy]tetrahydro-3′H-spiro[cyclobutane-1,2′-pyrrolo[2,1-b][1,3]oxazol]-3′-one] as the compound, how does the EC50 read?
Its EC50 is 43 nM.
